# Where a SMILES comes first, the peptide text is derived from it. Where no end group is shown, it is not given here. The star is where a group is joined. Undecanoyl = CCCCCCCCCCC(=O)*; Octanoyl = CCCCCCCC(=O)*
# Assays:
# MRSA = experiment: Kill curve in 10% sheep serum-phosphate buffer against MRSA; assay type: cell-based, S. aureus; details: 10% serum / biological environments
# C. albicans = experiment: Kill curve in vaginal simulant, C. albicans; assay type: cell-based; details: FIG. 2
# Description: (§1) An additional embodiment of the invention is directed towards methods of treating sexually transmitted diseases (STDs). Many of the fungal species responsible for STDs are likely to be inhibited or killed by application of one or more of the inventive hexapeptides of Table 1. Examples of such species include C. albicans, C. glabrata, and C. tropicalis. The inventive hexapeptide/s may additionally be used against other agents responsible for STDs including viruses and bacteria. The hexapeptide/s can be administered to an STD patient by any acceptable method, such as topical, oral, or systemic delivery. The hexapeptide/s can be administered in a single dose, in multiple doses, or as a continuous delivery. The hexapeptide/s can be administered in any acceptable form, such as a cream, gel, or liquid. An indication of the likelihood of activity of the hexapeptides of the present invention in the vaginal environment is shown in FIG. 2, where the activity of SEQ ID NO:55 is shown in killing curves against C. Albicans and S. aureus.
# [1] = set-up: species or system Sprague-Dawley rats; details: rat, in vivo
# Description: Each wound observed at each dressing change and the wound surface and tissue reaction assessed. There were 5 parameters of wound status that were checked: • i. Wound Film Security—Was the adhesive film used to cover the wound still completely adherent to the skin around the wound? • ii. Wound Surface—What was the exact visual appearance of the wound surface? • iii. Amount of Exudate—How much exudate was trapped under the film? In many cases, accumulated exudate causes the film to lose adherence and the exudates will escape. • iv. Severity of Tissue Reaction—A subjective rating of extent of tissue reaction on a scale of 1 (minimal), 2 (moderate), 3 (extensive). • v. % of Tissue Involved—In some situations, the wound surface contained denatures, friable tissue that could be wiped off with pressure applied to gauze. This test was used to better differentiate denatured tissue from viscous exudates.
# [2] = tested on: azole resistant strains of C. albicans; assay type: cell-based; details: azole resistant strains of C. albicans
# Protocol: (§2) The fractional inhibitory concentration (FIC) index was used to determine the synergy between antimicrobial agents. Peptide MICs against test microorganisms were determined three times on separate occasions. […]
# All strains are azole resistant clinical isolates from Prof. Ted White (Seattle Biotechnology Research Institute, Seattle)
# P. aeruginosa = assay type: cell-based; details: drug resistant P. aeruginosa
# Protocol: as §2
# S. aureus [3] = experiment: Kill curve in vaginal simulant, S. aureus; assay type: cell-based; details: FIG. 2
# Description: as §1
# Lipoteichoic acid (LTA) = experiment: LTA binding assay; details: FIG. 7
# Description: Lipoteichoic acid (LTA) is a common cell wall component of gram-positive bacteria including organisms such as S. aureus and P. acnes. The release of LTA during infection can lead to the release of mediators of the host inflammatory response which in turn can result in sepsis (septic shock). For example, when injected into animals, LTA can elicit many of the characteristic features of septic shock, including cytokine production, leukocytopenia, circulatory failure, multiple-organ dysfunction syndrome, and mortality.
# Trychophyton rubrum = experiment: MIC100 against dermatophyte Trychophyton rubrum; assay type: cell-based; details: T. rubrum; 125 ppm, day ten
# Protocol: (§3) In order to compare the activity of various antimicrobial peptides, including hexapeptide SEQ ID NO:1 (P0666), MIC were determined against the dermatophytes Trychophyton rubrum and Trychophyton mentagrophytes. The concentration of samples investigated were: 2000, 1000, 500, 250 and 125 μg/ml, respectively. The medium used was modified Sabouraud's media without agar. For a 100 mL of modified Sabouraud medium: 3 g of Sabouraud's dextrose broth (Difco) was mixed into 100 mL of deionized water. The pH was adjusted to 7.0 with 0.1 N NaOH. The solution was autoclaved for thirty minutes. 940 μL of medium was poured into sterile 20 mL test tubes with plastic caps and was allowed to cool.
# (§4) 50 μL of […] was added to each 20 mL test tube to make the required concentration. A control tube was composed of 50 μL of saline without sample. For the MIC experiments,
# (§5) 10 μL of organism suspended in saline was added to the each 20 mL test tube and vortexed slightly. Each of the test tubes was covered in parafilm and maintained on a shaker at 27° C. at a speed of approximately 100 rpm.
# (§6) The growth/inhibition of the organism was observed on a daily basis. […] The Minimum Inhibition Concentration (MIC100) for compounds F1 to F10 against fungus Trychophyton rubrum and Trychophyton mentagrophytes at 10 days.
# [4] = Systemic toxicity, tail vein injection; assay type: in vivo; details: mouse, IV, 20 mg/kg
# [5] = tested on: Trychophyton mentagrophytes; experiment: MIC100 against dermatophyte Trychophyton mentagrophytes; assay type: cell-based; details: T. mentagrophytes; 125 ppm, day ten
# Protocol: as §3, §4, §5, §6
# [6] = tested on: Salmonella typhimurium 14028S; experiment: MIC, broth microdilution, S. typhimurium; assay type: cell-based; set-up: unit not given here; details: S.typhimurium
# In short: (§7)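 For this NCCLS-based method, inoculum density depended on organism: 2×10^5–7×10^5 CFU/ml for bacteria and 2×10^3–7×10^3 CFU/ml for Candida. Incubation at 35° C lasted 16–20 h or 46–50 h, respectively, and the MIC was scored by visible turbidity.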
# Pseudomonas aeruginosa = assay type: cell-based; set-up: MIC, lipid length SAR: unit not given here; details: P.aeruginosa
# In short: as §7
# S. aureus [7] = experiment: Kill curve in 80% serum, S. aureus; assay type: cell-based
# Description: It should be noted that in addition to MIC data, the lipo-hexapeptides can also be distinguished by their ability to kill bacteria in the presence of biological constituents such as serum. […] This activity, an indicator of therapeutic potential, is not obvious from the MIC data alone.
compound,measurement,setting,value
CCCCCCCC(=O)N[C@@H](CCCCN)C(=O)N[C@@H](Cc1ccccc1)C(=O)N[C@@H](CCCCN)C(=O)N[C@@H](Cc1c[nH]c2ccccc12)C(=O)N1CCC[C@H]1C(=O)N[C@@H](Cc1c[nH]c2ccccc12)C(N)=O [SEQ ID NO:55] (Octanoyl-KFKWPW-NH2),ability to kill S. aureus in serum (in words),MRSA,increased ability
same,killing in vaginal simulant (in words),C. albicans,killing
same,tissue reaction (in words),[1],mild
same,synergy with clotrimazole (in words),[2],exhibits synergy
same,synergy with polymyxin B (in words),P. aeruginosa,displayed synergistic activity
same,killing in vaginal simulant (in words),S. aureus [3],killing
same,LTA binding (in words),Lipoteichoic acid (LTA),fail to bind LTA
KFKWPW-NH2 [SEQ ID NO:1],growth of organism,Trychophyton rubrum,only a slight growth
same,Result (systemic toxicity),[4]; solvent water,did not elicit systemic toxicity
same,growth of organism,[5],only a slight growth
KYKKALKKLAKLL-NH2 [SEQ ID NO:92],Result (systemic toxicity),[4]; solvent ringers,3/3 dead
Und-KFKWPW-NH2 (Undecanoyl-KFKWPW-NH2; SMILES CCCCCCCCCCC(=O)N[C@@H](CCCCN)C(=O)N[C@@H](Cc1ccccc1)C(=O)N[C@@H](CCCCN)C(=O)N[C@@H](Cc1c[nH]c2ccccc12)C(=O)N1CCC[C@H]1C(=O)N[C@@H](Cc1c[nH]c2ccccc12)C(N)=O) [SEQ ID NO: 79],"MIC, lipid length SAR",[6],8-16
same,"MIC, lipid length SAR",Pseudomonas aeruginosa,8-16
same,killing of S. aureus in 80% serum (in words),S. aureus [7],perform very well
